Several values for one entry are separate records, joined by “and”; a condition that tells them apart may be missing. Equal entries are not always repeated.
Tests used:
[1] = system: HCT-116 cells; test: Annexin V-FITC/PI apoptosis assay, HCT-116; type: cell-based, human; details: 30 µg/mL, 48 h
Method: Translocation of phosphatidylserine (PS) residues on the cell surface is an early apoptosis indicator, detectable through flow cytometric analysis and using double staining with propidium iodide (PI) dye and fluorescein isothiocyanate (FITC)-conjugated Annexin V (Annexin V-FITC). […]
μg/mL for 48 h. […]
(§1) S3.2.6. Annexin-V-FITC assay. […]
treatment with compound 3d. HCT-116 and LoVo cells were treated with vehicle (DMSO) and 3d […]
in Annexin-V binding buffer (BioVision Research Products, USA). The cells were then stained with Annexin V-FITC and propidium iodide (PI). Using the FITC signal detector (usually FL1) for […]
(§2) of stained cancerous cells were determined. […]

[2] = system: LoVo cells; test: Intracellular ROS level (human ROS ELISA kit), LoVo; type: cell-based; details: 30 µg/mL, 48 h
Method: To determine whether compound 3d induces oxidative stress, intracellular ROS levels were quantified after treatment (30 µg/mL, 48 h) using a human ROS ELISA kit.
A Human ROS ELISA Kit was used to measure the intracellular accumulation of ROS in the 3d-treated LoVo and HCT-116 cells. […]
medium served used as negative and positive controls, respectively. Percentages of viable cells […]
wells (final concentration of 100 μg/mL), compared to the negative control, and expressed as mean value (%) ± SD from two replicates. Graphing dose-response curves representing the compound […]
(HUVECs) at final concentration of 100 μg/mL . HUVECs were grown in Dulbecco’s Modified Eagle’s Medium supplemented with 10% FBS, 2 mM glutamine (Sigma Aldrich), 100 units/mL penicillin and […] streptomycin (Life Technologies; Paisley, UK).
S3.2.5. Cell cycle assay.
HCT-116 and LoVo cultures upon treatment with compound 3d. HCT-116 and LoVo carcinoma […]
μg/mL for 48 h. […] Then, cells […]
were fixed by mixing […] of 90% cold ethanol and stained with propidium iodide (PI) for 1 h at 37 °C. RNase A (10 mg/mL) was added in order to […] the ability of PI to bind only to DNA […]
as §1
treatment with compound 3d. […]
as §2
carcinoma cells treated with compound 3d was assessed using the TMRE Mitochondrial Membrane

[3] = molecular target: recombinant human LDHA protein (Homo sapiens, UniProt P00338); test: In vitro LDHA inhibitory assay (NADH consumption); type: biochemical

inhibition at 100 µg/mL ([3]; 100 µg/mL, three replicates, read-out: Mean Inhibition Percent ± SD, LDHA): 85.9 ± 2.97% | IC50 ([3]; three independent experiments, read-out: Mean IC50 µM ± SD, LDHA): 149 ± 7.93 µM
SMILES: COc1cc(/C=N/c2ncnc3sc4c(c23)CCCC4)cc(OC)c1OC [Compound 3d, (E)-N-(5,6,7,8-Tetrahydrobenzo[4,5]thieno[2,3-d]pyrimidin-4-yl)-1-(3,4,5-trimethoxyphenyl)methanimine]
Necrotic population (Annexin-V−/PI+), HCT-116 ([1]; Figure 3D plot): 1.53% | Late apoptotic cells (both Annexin-V and PI positive), HCT-116 ([1]; Figure 3D plot, control 0.15%): 3.63% | Early apoptotic cells (Annexin V-FITC positive and PI negative), HCT-116 ([1]; Figure 3D plot, control 0.46%): 19.02% | % of cell population, Mean necrosis (HCT-116) ([1]; mean of two independent experiments (Figure 3E)): 1.63% | % of cell population, Mean total death (HCT-116) ([1]; mean of two independent experiments (Figure 3E), text calls it total apoptosis): 25.11% | ROS, Fold of control, LoVo [2]: 2.6 | [ROS] pg/mL ± SD, LoVo ([2]; control 168.6 ± 6.5, two independent experiments): 434.5 ± 20.3 pg/mL and 434.5 pg/mL
